What is called IC50 is the point on the concentration scale where inhibition reaches its midpoint.

Each structure is given as a SMILES string.

In assay [1] the test system is HPAC (homozygous mutant KRAS G12D human pancreatic cell line). Put plainly: KRAS 3D-Cell Proliferation Assay, HPAC (Example 503). The assay is classed as cell-based. Conditions: Homo sapiens, HPAC, 168 h, HPAC 3D culture, 7 days, CellTiter-Glo 3D; read-out: Prolif HPAC 3D ATP IC50. The procedure, abridged:
(§1)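 Cells grown in 3D in ultra-low attachment plates (RPMI-1640 with 10% FBS and 2 mM L-glutamine) received compound dilution series after overnight attachment, at 0.3% DMSO final, for 7 days at 37° C. ATP luminescence (CellTiter-Glo 3D) normalized to DMSO and 1 μM staurosporine; IC50 from 4-parameter Hill fit.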

In assay [2] the test system is H1975 (KRAS wild type human lung adenocarcinoma cell line). Put plainly: KRAS 3D-Cell Proliferation Assay, H1975 (Example 503). The assay is classed as cell-based. Conditions: Homo sapiens, NCI-H1975, 168 h, H1975 3D culture, 7 days, CellTiter-Glo 3D; read-out: Prolif H1975 3D ATP IC50. The procedure, abridged:
as §1

As for `Cc1c(F)c(N)cc(-c2nc3c4c(nc(OC[C@@H](F)CN5CC(CO)(CO)C5)nc4c2F)N2C[C@H]4CC[C@H](N4)[C@H]2[C@H](C)O3)c1C(F)(F)F` [Compound 146], the figures for the IC50 in assay [1] and in assay [2] were 1740 nM and 20000 nM, respectively.

For `Cc1c(F)c(N)cc(-c2nc3c4c(nc(OCCC5(N6CCOCC6)COC5)nc4c2F)N2C[C@H]4CC[C@H](N4)[C@H]2[C@H](C)O3)c1C(F)(F)F` [Compound 149, 2-Fluoro-5-((5S,5aS,6S,9R)-1-fluoro-5-methyl-12-(2-(3-morpholinooxetan-3-yl)ethoxy)-5a,6,7,8,9,10-hexahydro-5H-4-oxa-3,10a,11,13,14-pentaaza-6,9-methanonaphtho[1,8-ab]heptalen-2-yl)-3-methyl-4-(trifluoromethyl)aniline], the values for the IC50 in assay [1] and in assay [2] were 186 nM and 20000 nM, respectively.

As to `Cc1c(F)c(N)cc(-c2nc3c4c(nc(OCC[C@@H]5CC[C@H]6COCCN56)nc4c2F)N2C[C@H]4CC[C@H](N4)[C@H]2[C@H](C)O3)c1C(F)(F)F` [Compound 154, 2-Fluoro-5-((5S,5aS,6S,9R)-1-fluoro-12-(2-((6S,8aS)-hexahydro-1H-pyrrolo[2,1-c][1,4]oxazin-6-yl)ethoxy)-5-methyl-5a,6,7,8,9,10-hexahydro-5H-4-oxa-3,10a,11,13,14-pentaaza-6,9-methanonaphtho[1,8-ab]heptalen-2-yl)-3-methyl-4-(trifluoromethyl)aniline], the concentration for half-maximal inhibition (IC50) in assay [1] was determined as 20.5 nM; in assay [2] it was 4100 nM.

For `C[C@@H]1Oc2nc(-c3cc(N)c(F)c(F)c3C(F)(F)F)c(F)c3nc(OCC45CCN4CC(F)(F)C5)nc(c23)N2C[C@H]3CC[C@H](N3)[C@@H]12` (stereo partly drawn) [Compound 155, 5-((5S,5aS,6S,9R)-12-((3,3-difluoro-1-azabicyclo[3.2.0]heptan-5-yl)methoxy)-1-fluoro-5-methyl-5a,6,7,8,9,10-hexahydro-5H-4-oxa-3,10a,11,13,14-pentaaza-6,9-methanonaphtho[1,8-ab]heptalen-2-yl)-2,3-difluoro-4-(trifluoromethyl)aniline], the IC50 in assay [1] is 8.84 nM; in assay [2], 4750 nM.

In the case of `C[C@@H]1Oc2nc(-c3cc(N)cc(F)c3C(F)(F)F)c(F)c3nc(OCC4CCC5N4CCOC5(C)C)nc(c23)N2C[C@H]3CC[C@H](N3)[C@@H]12` (stereo partly drawn) [Compound 157, 3-((5S,5aS,6S,9R)-12-((1,1-Dimethylhexahydro-1H-pyrrolo[2,1-c][1,4]oxazin-6-yl)methoxy)-1-fluoro-5-methyl-5a,6,7,8,9,10-hexahydro-5H-4-oxa-3,10a,11,13,14-pentaaza-6,9-methanonaphtho[1,8-ab]heptalen-2-yl)-5-fluoro-4-(trifluoromethyl)aniline], the IC50 in assay [1] was 12.8 nM; in assay [2], 2140 nM.

With `C[C@@H]1Oc2nc(-c3cc(N)c(F)c(F)c3CC(F)F)c(F)c3cc(OC[C@@H]4CC[C@H]5COCCN54)nc(c23)N2C[C@H]3CC[C@H](N3)[C@@H]12` [Compound 158, 4-(2,2-Difluoroethyl)-2,3-difluoro-5-((5S,5aS,6S,9R)-1-fluoro-13-(((6S,8aS)-hexahydro-1H-pyrrolo[2,1-c][1,4]oxazin-6-yl)methoxy)-5-methyl-5a,6,7,8,9,10-hexahydro-5H-6,9-epiminoazepino[2′,1′:3,4][1,4]oxazepino[5,6,7-ij][2,7]naphthyridin-2-yl)aniline], the figures for the IC50 in assay [1] and in assay [2] were 9.94 nM and 13800 nM, respectively.

`Cc1c(F)c(N)cc(-c2nc3c4c(nc(OC[C@H]5[C@H](C#N)CCN5C)nc4c2F)N2C[C@H]4CC[C@H](N4)[C@H]2[C@H](C)O3)c1C(F)(F)F` [Compound 161, (2R,3R)-2-((((5S,5aS,6S,9R)-2-(5-Amino-4° fluoro-3-methyl-2-(trifluoromethyl)°henyl)-1-fluoro-5-methyl-5a,6,7,8,9,10-hexahydro-5H-4-oxa-3,10a,11,13,14-pentaaza-6,9-methanonaphtho[1,8-ab]heptalen-12-yl)oxy)methyl)-1-methylpyrrolidine-3-carbonitrile]: the IC50 was 68.9 nM in assay [1] and 13000 nM in assay [2].

For the compound `Cc1c(F)c(N)cc(-c2nc3c4c(nc(OCCCN5C[C@H]6C[C@@H]5CO6)nc4c2F)N2C[C@H]4CC[C@H](N4)[C@H]2[C@H](C)O3)c1C(F)(F)F` [Compound 163, 5-((5S,5aS,6S,9R)-12-(3-((1R,4R)-2-Oxa-5-azabicyclo[2.2.1]heptan-5-yl)propoxy)-1-fluoro-5-methyl-5a,6,7,8,9,10-hexahydro-5H-4-oxa-3,10a,11,13,14-pentaaza-6,9-methanonaphtho[1,8-ab]heptalen-2-yl)-2-fluoro-3-methyl-4-(trifluoromethyl)aniline], the IC50 in assay [1] was determined as 10.2 nM; in assay [2], 1140 nM.

Consider `Cc1c(F)c(N)cc(-c2nc3c4c(nc(OCCCN5C[C@@H]6C[C@H]5CO6)nc4c2F)N2C[C@H]4CC[C@H](N4)[C@H]2[C@H](C)O3)c1C(F)(F)F` [Compound 164, 5-((5S,5aS,6S,9R)-12-(3-((1S,4S)-2-oxa-5-azabicyclo[2.2.1]heptan-5-yl)propoxy)-1-fluoro-5-methyl-5a,6,7,8,9,10-hexahydro-5H-4-oxa-3,10a,11,13,14-pentaaza-6,9-methanonaphtho[1,8-ab]heptalen-2-yl)-2-fluoro-3-methyl-4-(trifluoromethyl)aniline], for which the results for the IC50 in assay [1] and in assay [2] were 43.8 nM and 7110 nM, respectively.

Regarding `Cc1c(F)c(N)cc(-c2nc3c4c(nc(OCC5(CN6C[C@@H]7C[C@H]6CO7)CC5)nc4c2F)N2C[C@H]4CC[C@H](N4)[C@H]2[C@H](C)O3)c1C(F)(F)F` [Compound 169, 5-((5S,5aS,6S,9R)-12-((1-(((1S,4S)-2-Oxa-5-azabicyclo[2.2.1]heptan-5-yl)methyl)cyclopropyl)methoxy)-1-fluoro-5-methyl-5a,6,7,8,9,10-hexahydro-5H-4-oxa-3,10a,11,13,14-pentaaza-6,9-methanonaphtho[1,8-ab]heptalene-2-yl)-2-fluoro-3-methyl-4-(trifluoromethyl)aniline], the IC50 was 0.92 nM in assay [1] and 454 nM in assay [2].

For `Cc1c(F)c(N)cc(-c2nc3c4c(nc(OCC5(CN6CCO[C@H](CF)C6)CC5)nc4c2F)N2C[C@H]4CC[C@H](N4)[C@H]2[C@H](C)O3)c1C(F)(F)F` [Compound 171, 2-Fluoro-5-((5S,5aS,6S,9R)-1-fluoro-12-((1-(((S)-2-(fluoromethyl)morpholino)methyl)cyclopropyl)methoxy)-5-methyl-5a,6,7,8,9,10-hexahydro-5H-4-oxa-3,10a,11,13,14-pentaaza-6,9-methanonaphtho[1,8-ab]heptalen-2-yl)-3-methyl-4-(trifluoromethyl)aniline], the IC50 in assay [1] is 1.33 nM; in assay [2] it was 904 nM.

For the compound `Cc1c(F)c(N)cc(-c2nc3c4c(nc(OCC5(CN6CCO[C@@H](CF)C6)CC5)nc4c2F)N2C[C@H]4CC[C@H](N4)[C@H]2[C@H](C)O3)c1C(F)(F)F` [Compound 172, 2-Fluoro-5-((5S,5aS,6S,9R)-1-fluoro-12-((1-(((R)-2-(fluoromethyl)morpholino)methyl)cyclopropyl)methoxy)-5-methyl-5a,6,7,8,9,10-hexahydro-5H-4-oxa-3,10a,11,13,14-pentaaza-6,9-methanonaphtho[1,8-ab]heptalen-2-yl)-3-methyl-4-(trifluoromethyl)aniline], the IC50 in assay [1] came out at 1.72 nM; in assay [2], 864 nM.

The record behind these values is US12338256B2, “Aza-tetracyclic oxazepine compounds and uses thereof” (Genentech, Inc., priority 2022, dated 2025).
